{"source": "PubChem BioAssay (NCI)", "assay_in_all_cases": "inhibition of tumour cell growth, NCI panel, 48 h", "key": {"HOP-92 NSCLC": {"tested_on": "HOP-92 NSCLC"}, "NCI-H522 lung": {"tested_on": "NCI-H522 lung"}, "UACC-257 melanoma": {"tested_on": "UACC-257 melanoma"}, "LOX IMVI melanoma": {"tested_on": "LOX IMVI melanoma"}, "SNB-75 CNS": {"tested_on": "SNB-75 CNS"}, "MDA-MB-231 breast": {"tested_on": "MDA-MB-231 breast"}, "M14 melanoma": {"tested_on": "M14 melanoma"}, "OVCAR-5 ovarian": {"tested_on": "OVCAR-5 ovarian"}, "786-0 renal": {"tested_on": "786-0 renal"}, "SN12C renal": {"tested_on": "SN12C renal"}}, "note": "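A five-concentration, 48-hour dose response in 96-well plates underlies each endpoint, interpolated linearly between surrounding concentrations. Definition used: TGI = concentration required for complete inhibition of growth.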"}
{"smiles": "COc1ccc2c(c1OC)C(=O)O[C@@H]2[C@H]1c2c(cc3c(c2OC)OCO3)CCN1C", "values": [{"measurement": "TGI", "setting": "HOP-92 NSCLC", "result": "> 100", "unit": "µM"}, {"measurement": "TGI", "setting": "NCI-H522 lung", "result": "> 100", "unit": "µM"}, {"measurement": "TGI", "setting": "UACC-257 melanoma", "result": "> 100", "unit": "µM"}, {"measurement": "TGI", "setting": "LOX IMVI melanoma", "result": "> 100", "unit": "µM"}, {"measurement": "TGI", "setting": "SNB-75 CNS", "result": 34, "unit": "µM"}, {"measurement": "TGI", "setting": "MDA-MB-231 breast", "result": "> 100", "unit": "µM"}, {"measurement": "TGI", "setting": "M14 melanoma", "result": "> 100", "unit": "µM"}, {"measurement": "TGI", "setting": "OVCAR-5 ovarian", "result": "> 100", "unit": "µM"}, {"measurement": "TGI", "setting": "786-0 renal", "result": "> 100", "unit": "µM"}, {"measurement": "TGI", "setting": "SN12C renal", "result": "> 100", "unit": "µM"}]}
